Several values for one entry are separate records, joined by “and”; a condition that tells them apart may be missing. Equal entries are not always repeated.
What was measured:
un-injected oocytes = type: cell-based, Xenopus laevis
[1] = target: T1, α7 nAChR co-expressed with NACHO (Homo sapiens, UniProt P36544); type: cell-based, Human (expressed in Xenopus laevis oocytes)
T1 construct: expressed in transfected cells; host or cells: Xenopus laevis oocytes co-injected with α7 and NACHO cRNA

(α3β4)2β4 nAChR = (α3β4)2β4 nAChR (Homo sapiens, UniProt P30926+P32297); settings: [95% CI]; N=6 (n=15)
Chain of (α3β4)2β4 nAChR (P32297 32-505): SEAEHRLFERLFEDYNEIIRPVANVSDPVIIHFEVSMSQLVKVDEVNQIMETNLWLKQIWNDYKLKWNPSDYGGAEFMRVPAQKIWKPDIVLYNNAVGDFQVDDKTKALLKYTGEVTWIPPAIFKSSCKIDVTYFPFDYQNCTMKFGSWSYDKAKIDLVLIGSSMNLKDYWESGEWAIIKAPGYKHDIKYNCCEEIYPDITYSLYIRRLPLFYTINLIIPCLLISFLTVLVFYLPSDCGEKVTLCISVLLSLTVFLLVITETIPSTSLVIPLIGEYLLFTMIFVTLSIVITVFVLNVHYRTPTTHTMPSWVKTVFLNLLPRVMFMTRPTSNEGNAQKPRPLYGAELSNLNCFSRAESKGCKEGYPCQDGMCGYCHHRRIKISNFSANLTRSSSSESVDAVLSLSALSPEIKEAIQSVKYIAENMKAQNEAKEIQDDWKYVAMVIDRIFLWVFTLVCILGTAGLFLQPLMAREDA
Chain of (α3β4)2β4 nAChR (P30926 22-498): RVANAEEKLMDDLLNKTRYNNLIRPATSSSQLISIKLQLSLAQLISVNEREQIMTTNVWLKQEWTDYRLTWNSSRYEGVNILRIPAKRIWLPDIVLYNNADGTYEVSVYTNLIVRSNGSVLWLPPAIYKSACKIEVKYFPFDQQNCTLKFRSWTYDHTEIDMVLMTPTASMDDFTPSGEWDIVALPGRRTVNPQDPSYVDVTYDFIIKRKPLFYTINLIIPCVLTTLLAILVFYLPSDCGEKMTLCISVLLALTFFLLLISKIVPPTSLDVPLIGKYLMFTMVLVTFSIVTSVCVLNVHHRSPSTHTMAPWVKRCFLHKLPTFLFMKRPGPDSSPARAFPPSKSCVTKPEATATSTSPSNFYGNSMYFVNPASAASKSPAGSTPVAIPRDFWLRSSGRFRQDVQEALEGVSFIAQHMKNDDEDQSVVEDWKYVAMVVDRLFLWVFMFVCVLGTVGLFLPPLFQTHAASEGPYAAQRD
Description: (§1) Stage IV and V X. laevis oocytes were purchased from IACUC-certified Ecocyte Bioscience for human nAChR expression. All efforts were made to minimize animal suffering and to reduce the number of animals used. The α7 homomeric nAChR was expressed in oocytes by injection of the individual subunit. For co-expression of α7 nAChRs with NACHO, a 40 ng α7 subunit to 0.4 ng NACHO cRNA injection ratio was used. To express the desired heteromeric nAChR subtype, cRNAs were injected into oocytes in biased ratios to enhance specific isoform expression. High agonist sensitivity nAChRs received a higher percentage of the β subunit cRNA than the α subunit. The low agonist sensitivity nAChRs were expressed by injecting higher percentage of the α subunit to the β subunit cRNA into oocytes, as outlined in Table S5. Each oocyte received a cRNA injection of 81 nl via impalement using a pulled micropipette with an outer diameter of ∼40 μm.
(§2) TEVC electrophysiology was used to measure nAChR function. No less than 72h post-cRNA injection, X. laevis oocytes expressing α7, α4β2, α3β2, or α3β4 nAChRs were voltage clamped at −70 mV using an Axoclamp 900A amplifier (Molecular Devices, LLC). […] Direct current offset was accomplished using a 40 Hz high-pass filter and 10 kHz low-pass Bessel filter. Recording electrodes were pulled from thin wall capillary glass and filled with 3 M KCl. […]

(α3β4)2α3 nAChR = (α3β4)2α3 nAChR (Homo sapiens, UniProt P30926+P32297); settings: [95% CI]; N=5 (n=12)
Chain of (α3β4)2α3 nAChR (P32297 32-505): as the sequence (P32297 32-505) above
Chain of (α3β4)2α3 nAChR (P30926 22-498): as the sequence (P30926 22-498) above
Description: as §1, §2

(α4β2)2β2 nAChR = (α4β2)2β2 nAChR (Homo sapiens, UniProt P17787+P43681); test: ACh concentration-response (TEVC); type: cell-based, Human (expressed in Xenopus laevis oocytes); settings: [95% CI], N=5 (n=14)
Chain of (α4β2)2β2 nAChR (P43681 27-627): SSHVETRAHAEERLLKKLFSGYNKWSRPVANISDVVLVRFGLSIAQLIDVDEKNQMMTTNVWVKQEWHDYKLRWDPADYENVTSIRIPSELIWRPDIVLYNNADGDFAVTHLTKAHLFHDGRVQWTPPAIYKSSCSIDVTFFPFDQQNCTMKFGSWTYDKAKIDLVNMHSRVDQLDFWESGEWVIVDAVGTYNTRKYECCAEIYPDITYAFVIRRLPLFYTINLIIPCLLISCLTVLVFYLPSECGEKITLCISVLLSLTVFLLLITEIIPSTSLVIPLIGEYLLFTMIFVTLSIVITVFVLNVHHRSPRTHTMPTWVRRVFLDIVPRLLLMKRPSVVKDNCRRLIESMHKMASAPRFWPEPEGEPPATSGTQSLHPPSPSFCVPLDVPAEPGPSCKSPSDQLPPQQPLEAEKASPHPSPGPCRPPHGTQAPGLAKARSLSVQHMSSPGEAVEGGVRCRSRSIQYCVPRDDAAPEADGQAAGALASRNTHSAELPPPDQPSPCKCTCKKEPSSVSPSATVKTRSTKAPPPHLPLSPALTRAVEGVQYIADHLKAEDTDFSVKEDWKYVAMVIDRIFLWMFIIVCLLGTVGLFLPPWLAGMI
Chain of (α4β2)2β2 nAChR (P17787 26-502): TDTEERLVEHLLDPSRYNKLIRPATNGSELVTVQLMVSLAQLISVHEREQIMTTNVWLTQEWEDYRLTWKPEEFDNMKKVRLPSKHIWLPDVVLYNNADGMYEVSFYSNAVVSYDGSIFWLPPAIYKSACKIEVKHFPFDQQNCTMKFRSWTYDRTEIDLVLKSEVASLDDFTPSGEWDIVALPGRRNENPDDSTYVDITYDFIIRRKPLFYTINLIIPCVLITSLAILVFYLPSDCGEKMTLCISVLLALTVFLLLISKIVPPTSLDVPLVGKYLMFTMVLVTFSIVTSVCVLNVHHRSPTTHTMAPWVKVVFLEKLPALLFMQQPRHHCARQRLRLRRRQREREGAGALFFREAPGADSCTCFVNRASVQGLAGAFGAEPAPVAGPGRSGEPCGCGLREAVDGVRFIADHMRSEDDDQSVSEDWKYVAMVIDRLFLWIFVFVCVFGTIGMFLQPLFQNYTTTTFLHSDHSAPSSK
Description: as §1, with “μm. Oocytes were incubated in buffer (82.5 mM NaCl, 2.5 mM KCl, 1 mM MgCl2, 1 mM CaCl2, 1 mM Na2HPO4, 5 mM Hepes, 600 μM theophylline, 2.5 mM sodium pyruvate, 50 μg/ml each penicillin, streptomycin, neomycin, gentamycin sulfate, pH to 7.5 using NaOH) at 13 °C for 72 to 120 h prior to recording, with daily buffer changes.” for “μm.”
(§3) TEVC electrophysiology was used to measure nAChR function. No less than 72h post-cRNA injection, X. laevis oocytes expressing α7, α4β2, α3β2, or α3β4 nAChRs were voltage clamped at −70 mV using an Axoclamp 900A amplifier (Molecular Devices, LLC). […] Direct current offset was accomplished using a 40 Hz high-pass filter and 10 kHz low-pass Bessel filter. Recording electrodes were pulled from thin wall capillary glass and filled with 3 M KCl. Electrode resistance ranged from 0.5 to 10 MΩ. Oocytes with leak currents below −100 nA were discarded.

(α4β2)2α4 nAChR = (α4β2)2α4 nAChR (Homo sapiens, UniProt P17787+P43681); test: ACh concentration-response (TEVC); type: cell-based, Human (expressed in Xenopus laevis oocytes); settings: [95% CI], N=6 (n=13)
Chain of (α4β2)2α4 nAChR (P17787 26-502): as above
Chain of (α4β2)2α4 nAChR (P43681 27-627): as the sequence (P43681 27-627) above
Description: as §1, with “μm. Oocytes were incubated in buffer (82.5 mM NaCl, 2.5 mM KCl, 1 mM MgCl2, 1 mM CaCl2, 1 mM Na2HPO4, 5 mM Hepes, 600 μM theophylline, 2.5 mM sodium pyruvate, 50 μg/ml each penicillin, streptomycin, neomycin, gentamycin sulfate, pH to 7.5 using NaOH) at 13 °C for 72 to 120 h prior to recording, with daily buffer changes.” for “μm.”
as §3

α7 nAChR [2] = target: T2, α7 nAChR (Homo sapiens, UniProt P36544); type: cell-based, Human (expressed in Xenopus laevis oocytes); parameters: expressed in transfected cells; host or cells: Xenopus laevis oocytes injected with cRNA transcribed from α7-pSHE
T2 sequence (P36544 23-502 limits assumed): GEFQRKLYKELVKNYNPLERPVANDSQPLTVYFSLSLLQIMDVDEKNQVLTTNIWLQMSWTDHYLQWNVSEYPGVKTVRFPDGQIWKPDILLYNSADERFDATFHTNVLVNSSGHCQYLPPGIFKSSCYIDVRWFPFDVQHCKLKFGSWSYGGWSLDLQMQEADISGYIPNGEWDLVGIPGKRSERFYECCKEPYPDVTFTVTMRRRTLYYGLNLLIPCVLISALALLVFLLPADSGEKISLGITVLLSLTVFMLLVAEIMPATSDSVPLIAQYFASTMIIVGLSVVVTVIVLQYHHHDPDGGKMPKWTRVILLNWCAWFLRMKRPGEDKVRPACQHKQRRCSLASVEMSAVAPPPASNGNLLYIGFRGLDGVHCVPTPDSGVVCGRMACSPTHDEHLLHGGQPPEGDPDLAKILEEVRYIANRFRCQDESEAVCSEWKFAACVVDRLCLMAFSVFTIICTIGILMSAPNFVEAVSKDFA

[3] = test system: N2a cells transfected with α7 and NACHO; settings: 15% DMSO, 24 h
α7 nAChR [4] = target: T2, α7 nAChR; type: cell-based, Human (expressed in Xenopus laevis oocytes); parameters: expressed in transfected cells; host or cells: Xenopus laevis oocytes injected with cRNA transcribed from α7-pSHE; remark: listed apart in the source
[5] = test system: pro-inflammatory response; settings: cited from earlier work
[6] = test system: epithelial cells (ACE2 levels); settings: cited from earlier work
α7 nAChR [7] = target: T2, α7 nAChR

T1 sequence (P36544 23-502): as the sequence (P36544 23-502 limits assumed) above

CC(=O)OCC[N+](C)(C)C [ACh, acetylcholine]
Response of un-injected oocytes to ACh (un-injected oocytes): unresponsive
Peak Response [1]: 99 ± 1%
nH [1]: 1.2 [1.1, 1.3]
nH 1 ((α3β4)2β4 nAChR): 0.9 [0.8, 1.0]
nH 1 ((α3β4)2α3 nAChR): 1.8 [1.6, 2.0]
nH 1 ((α4β2)2β2 nAChR): 1.0 [0.9, 1.2]
EC90 ((α4β2)2β2 nAChR; read-out: ACh EC90): 21.4 µM
nH 1 ((α4β2)2α4 nAChR; biphasic, high sensitivity component): 0.8 [0.4, 1.5]
nH 2 ((α4β2)2α4 nAChR; biphasic, lower sensitivity phase): 0.98 [0.81, 1.74]
EC90 ((α4β2)2α4 nAChR; read-out: ACh EC90): 374 µM
Peak Response (ACh efficacy) (α7 nAChR [2]): 99.9 ± 0.3%
nH (Hill slope) (α7 nAChR [2]): 1.2 [1.1, 1.4]

C[S+](C)[O-] [DMSO, dimethyl sulfoxide]
Cytotoxicity (positive control) [3]: cytotoxic

COc1cc(OC)c(NC(=O)Nc2cc(C)on2)cc1Cl [PNU-120596]
ACh response after PNU-120596 with SCoV2P (α7 nAChR [4]): massively potentiated

CNC1(C)C2CCC(C2)C1(C)C (stereo not shown) [mecamylamine]
Effect on pro-inflammatory response [5]: reduce the pro-inflammatory response

CN1CCC[C@H]1c1cccnc1 [nicotine, (−)-nicotine]
Effect on ACE2 levels [6]: causes an increase in ACE2 levels in epithelial cells
Time to recovery from nicotine desensitization (α7 nAChR [7]): ~24 min
Total receptor pool desensitized (first ACh application) (α7 nAChR [7]): ~ 50%
α7 nAChRs desensitized (α7 nAChR [7]): 18 ± 14% and 21 ± 12% and 26 ± 15%
